According to patent US7820689B2, “Methods and compositions for preventing or treating cardiovascular disease” (priority 2006, dated 2010):
Read-outs that look alike come from different tables or passages of the source.

Assays:
apoE-deficient mice = assay type: in vivo
Procedure: (§1) ApoE-deficient mice were fed with a high cholesterol diet containing 21% fat and 0.15% cholesterol (PMI LabDiet 40097, Richmond, Ind., USA) from 8-17 weeks of age. […] After completing the treatment, blood samples were collected by direct heart puncture when sacrificing the animals. The serum levels of total cholesterol, LDL, HDL, and triglyceride were measured by enzymatic methods using an automatic analyzer (Model 747, Hitachi Ltd. Co., Tokyo, Japan). The aorta was dissected from the aortic valve to the iliac bifurcation. To identify lipid-rich atherosclerotic lesions, the aorta was rinsed in 50% isopropanol for 2 minutes, incubated in 0.67% Oil-Red-O for 15 minutes, and washed by 10% isopropanol for 2 minutes. Using a dissection microscope, the area of each atherosclerotic lesion was measured with Image Pro Plus software (Version 3.0.1; Media Cybernetics, Inc, Silver Spring, Md., USA) and expressed as percentage of atherosclerotic area/total area of the aorta.

[1] = tested on: superoxide production in THP-1 cell culture; experiment: LPS-induced macrophage superoxide production, lucigenin-enhanced chemiluminescence; assay type: cell-based, human
Procedure: (§2) THP-1 cells were grown in the RPMI-1640 medium containing 10% fetal bovine serum at 37° C. in 5% CO2. The cells were differentiated to macrophages after treatment of the culture with 100 nM PMA for 24 hours. The cell suspension (5×10^5) was added in 0.5 mL into each well of the tissue culture plates. […] LPS was dissolved in sterile water and stored at −70° C. in aliquots. LDL was isolated from human endotoxin-free heparin plasma and was oxidized using CuSO4. In brief, LDL (1 mL, 1 mg/mL) was dialyzed in 500 mL phosphate-buffered saline (PBS, pH 7.4) overnight. Copper sulfate was added to a final concentration of 5 μM, and the LDL was allowed to oxidize at room temperature for 24 hours.
(§3) The supernatants were harvested and the TNF-α, IL-6, and MCP-1 levels were determined by ELISA. Superoxide production in the THP-1 cell culture was measured by lucigenin-enhanced chemiluminescence as described previously (Khadour F H, Panas D, Ferdinandy P, et al. Am J Physiol Heart Circ Physiol, 28:H1108-15 2002). LPS-treated THP-1 cells were treated with PBS containing 1.25 mM lucigenin, and counts were obtained for a 10-minute period in a luminometer (Berthold Technologies, Germany) as relative light units (RLU) emitted. Background counts determined in cell-free preparations were subtracted. Superoxide levels were reported as RLU per 10 minutes and were normalized to the volume (mL) of cell suspension added (i.e., RUL/10 min/mL).
We used lucigenin-enhanced chemiluminescence to assess the DM effect on macrophage superoxide production after stimulation.

[2] = tested on: IL-6 release from THP-1 cells after oxLDL stimulation; experiment: oxLDL-induced IL-6 release in THP-1 macrophage culture (ELISA); assay type: cell-based, human
Procedure: THP-1 cells were grown in the RPMI-1640 medium containing 10% fetal bovine serum at 37° C. in 5% CO2. The cells were differentiated to macrophages after treatment of the culture with 100 nM PMA for 24 hours. The cell suspension (5×10^5) was added in 0.5 mL into each well of the tissue culture plates. For each experiment, naloxone was prepared immediately before use. LPS was dissolved in sterile water and stored at −70° C. in aliquots. LDL was isolated from human endotoxin-free heparin plasma and was oxidized using CuSO4. In brief, LDL (1 mL, 1 mg/mL) was dialyzed in 500 mL phosphate-buffered saline (PBS, pH 7.4) overnight. Copper sulfate was added to a final concentration of 5 μM, and the LDL was allowed to oxidize at room temperature for 24 hours.
as §3

[3] = Serum lipid levels in apoE-deficient mice on high cholesterol diet; assay type: in vivo
Procedure: as §1

[4] = tested on: MCP-1 release from THP-1 cells after LPS stimulation; experiment: LPS-induced MCP-1 release in THP-1 macrophage culture (ELISA); assay type: cell-based, human; details: 1 μM pretreatment, LPS alone 9.22±1.17
Procedure: as §2
as §3, with “Superoxide levels were reported as RLU per 10 minutes and were normalized to the volume (mL) of cell suspension added (i.e., RUL/10 min/mL).” left out

[5] = tested on: superoxide in the thoracic aorta; experiment: Superoxide production in thoracic aorta of apoE-deficient mice, lucigenin chemiluminescence; assay type: in vivo; details: 10 weeks, controls 534,000±145,000
Procedure: ApoE-deficient mice were treated daily with DM 5 mg/kg/day (n=9), 10 mg/kg/day (n=9), 20 mg/kg/day (n=9) or 40 mg/kg/day (n=11) for 10 weeks. Production of superoxide in PMN (1×10^6 cells/mL PBS) (A) was measured by lucigenin-enhanced chemiluminescence. The results are expressed as mean±SD. (P<0.05, control versus 10 mg/kg/day; P<0.001, control versus 20 mg/kg/day and 40 mg/kg/day). Production of superoxide in the thoracic aorta (B) was also measured by lucigenin-enhanced chemiluminescence. The results are expressed as mean±SD. (P<0.05, control versus 10 mg/kg/day and 40 mg/kg/day; P<0.01, control versus 20 mg/kg/day).
Having established the DM inhibitory effect on macrophage activation and NADPH oxidase, we next examined the functional consequences of which in vivo. […] Sections of left carotid arteries from the mice were stained with DHE and then imaged with a laser scanning confocal microscope.

With `C=CCN1CC[C@]23c4c5ccc(O)c4O[C@H]2C(=O)CC[C@@]3(O)[C@H]1C5` [Naloxone, 17-allyl-4,5α-epoxy-3,14-dihydroxymorphinan-6-one] the “aortic atherosclerotic lesion area” value (apoE-deficient mice; 10 mg/kg/day i.p. 10 weeks, PBS 12.9±6.1) was 5.2±3.8%, the “aortic atherosclerotic lesion area” value (apoE-deficient mice; 20 mg/kg/day i.p. 10 weeks, PBS 12.9±6.1) was 3.4±1.4% and the “aortic atherosclerotic lesion area” value (apoE-deficient mice; 25 mg/kg/day i.p. 10 weeks, PBS 12.9±6.1) was 1.8±1.2%. For the same compound, the macrophage superoxide production ([1]; 0.1 μM pretreatment, LPS alone 817,000±90,000) was 364,000±202,000 RLU/10 min/mL, the macrophage superoxide production ([1]; 1 μM pretreatment, LPS alone 817,000±90,000) was 362,000±24,000 RLU/10 min/mL and the IL-6 in medium ([2]; 0.01 μM pretreatment, oxLDL alone 1.51±0.08) was 1.05 ± 0.03 ng/mL. For the same compound, the IL-6 in medium ([2]; 0.1 μM pretreatment, oxLDL alone 1.51±0.08) was 1.01 ± 0.01 ng/mL, the IL-6 in medium ([2]; 1 μM pretreatment, oxLDL alone 1.51±0.08) was 1.05 ± 0.07 ng/mL and the “total cholesterol, triglyceride, LDL, and HDL levels” value ([3]; naloxone 10, 20, 25 mg/kg/day i.p. 10 weeks vs PBS) was “no significant differences”. For the same compound, the MCP-1 in medium [4] was 6.16 ± 0.16 ng/mL.
For `COc1ccc2c(c1)[C@]13CCCC[C@@H]1[C@H](C2)N(C)CC3` [DM, (+)-3-methoxy-17-methyl-9α,13α,14α-morphinan], the “aortic atherosclerotic lesion area” value (apoE-deficient mice; DM 5 mg/kg/day 10 weeks, P=NS, controls 16.9±4.3) was 14.1±5.7%, the “aortic atherosclerotic lesion area” value (apoE-deficient mice; DM 10 mg/kg/day 10 weeks, controls 16.9±4.3) was 8.2±3.8% and the “aortic atherosclerotic lesion area” value (apoE-deficient mice; DM 20 mg/kg/day 10 weeks, controls 16.9±4.3) was 5.0±2.0%. For the same compound, the “aortic atherosclerotic lesion area” value (apoE-deficient mice; DM 40 mg/kg/day 10 weeks, controls 16.9±4.3) was 4.6±3.6%, the macrophage superoxide production ([1]; DM 0.01 μM pretreatment, LPS alone 612,000±105,000) was 341,000±82,000 RLU/15 min/mL and the macrophage superoxide production ([1]; DM 0.1 μM pretreatment, LPS alone 612,000±105,000) was 303,000±109,000 RLU/15 min/mL. The macrophage superoxide production ([1]; DM 1 μM pretreatment, LPS alone 612,000±105,000) was 257,000±45,000 RLU/15 min/mL, the IL-6 in medium ([2]; DM 0.01 μM pretreatment, oxLDL alone 2.46±1.20) was 1.40 ± 0.58 ng/mL and the IL-6 in medium ([2]; DM 0.1 μM pretreatment, oxLDL alone 2.46±1.20) was 1.28 ± 0.64 ng/mL. For the same compound, the IL-6 in medium ([2]; DM 1 μM pretreatment, oxLDL alone 2.46±1.20) was 1.33 ± 0.67 ng/mL, the “total cholesterol, triglyceride, LDL, and HDL levels” value ([3]; DM treatment for 10 weeks vs controls) was “no significant differences” and the “superoxide in the thoracic aorta” value ([5]; 5 mg/kg, P=NS) was 424,000±141,000 RLU/15 min. The “superoxide in the thoracic aorta” value ([5]; 10 mg/kg) was 377,000±97,000 RLU/15 min, the “superoxide in the thoracic aorta” value ([5]; 20 mg/kg) was 341,000±94,000 RLU/15 min and the “superoxide in the thoracic aorta” value ([5]; 40 mg/kg) was 379,000±84,000 RLU/15 min.
